Data: EP0155454A1, “Use of pirenzepine, its salts or medicaments containing pirenzepine for the treatment of colon disorders” (Dr. Karl Thomae GmbH, priority 1984, dated 1985)
Structures can show the parent of a compound that is named as a salt. Where two headings read alike, the source gives them in different places.

Legend:
Darmmotilität = conditions: cited from earlier work
Dickdarmmotorik [1] = conditions: in vivo; cited from earlier work
Colon irritabile = experiment: Double-blind cross-over clinical study versus placebo in patients with Colon irritabile; type: in vivo, Patienten; conditions: for symptomfrei oder gebessert: 2 x 25 mg/Tag, 2 weeks per period, 30 Patienten
Description: Bei klinischen Untersuchungen an 30 Patienten mit dem angegebenen Beschwerdebild Colon irritabile, wobei sich trotz umfangreicher diagnostischer Maßnahmen bei keinem der Patienten ein pathologischer Befund ergab, wurde Pirenzepin-dihydrochloridmonohydrat zum Einsatz gebracht. Da es für einen möglichen Therapieerfolg bei der geschilderten Indikation keinen objektivierbaren Parameter gibt, wurde jeder Patient in Doppelblind-cross over-Technik entweder mit Pirenzepin oder mit Placebo behandelt. Die Dosierung betrug 2 x 25 mg/Tag. Der Versuchsplan ermöglichte also bei jedem Patienten einen zweimal 2-wöchigen Beobachtungszeitraum. Die geprüften Parameter waren Obstipation, Diarrhoe, Schafkotstuhl, wechselnde Stühle und Schleimabsonderung. Die Beurteilung der therapeutischen Wirkung erfolgte vor Beginn der Behandlung und nach jedem einzelnen Versuchsabschnitt. Jeder Patient erhielt einen weitgefächerten Score, um seine subjektiven Eindrücke festzuhalten. Diese Angaben wurden ausgewertet, wobei die generalisierten Befunde bezüglich der Einzelsymptomatik in der nachstehenden Tabelle aufgeführt sind: […]

Dickdarmmotorik [2] = experiment: Neostigmine-stimulated colon motility in healthy volunteers, acute intravenous pirenzepine; type: in vivo, freiwilligen Probanden
Description: Pirenzepin löst einen krankhaften Spasmus im Darmtrakt ohne den Darm zu lähmen. Um dieses zu beweisen, bzw. um zu überprüfen, ob Pirenzepin anders als Atropin die gestörten motorischen Verhältnisse zu beeinflussen in der Lage ist und sich damit von Anticholinergika, Atropin oder Atropinderivaten unterscheidet, wurde die Dickdarmmotorik bei freiwilligen Probanden mit Neostigmin stimuliert und im Akutversuch Pirenzepin intravenös in therapeutischen Dosen verabreicht. In einer zweiten Serie wurden die Druck- und Motorikverhältnisse bei Patienten mit Colon irritabile vor und nach einer oralen Therapie mit Pirenzepin geprüft. Die dabei erzielten Ergebnisse lassen sich wie folgt zusammenfassen: Im Vergleich zur basalen Untersuchungsperiode konnte unter Neostigminstimulation an gesunden Testpersonen eine signifikante Zunahme der Druckamplitude um 21 %, der Kontraktionsdauer um 76 % und ein Anstieg des Motilitätsindex um 82 % beobachtet werden.

[3] = intravenös, therapeutic doses, after Neostigmin stimulation

## CN1C2CCC1CC(OC(=O)C(CO)c1ccccc1)C2 (racemic) [Atropin]
Darmmotilität; in vivo
  Verminderung der Darmmotilität: eine Verminderung der Darmmotilität bewirkt
Dickdarmmotorik [1]
  propulsive motorische Kontraktionen: zum Erliegen bringt

## CN1CCN(CC(=O)N2c3ccccc3C(=O)Nc3cccnc32)CC1 [Gastrozepin, 5,11-Dihydro-11 [(4-methyl-piperazin-1-yl)acetyl]-6H-pyrido [2,3-b] [1,4] benzodiazpin-6-on-dihydrochloridmonohydrat]
Colon irritabile; Symptom Diarrhoe
  symptomfrei oder gebessert: 84%
Colon irritabile; Symptom Obstipation
  symptomfrei oder gebessert: 72%
Colon irritabile; Symptom Schafkotstuhl
  symptomfrei oder gebessert: 80%
Colon irritabile; Symptom Schleimabsonderung
  symptomfrei oder gebessert: 83%
Colon irritabile; Symptom Wechselnde Stühle
  symptomfrei oder gebessert: 89%

## CN(C)C(=O)Oc1cccc([N+](C)(C)C)c1 [Neostigmin]
Dickdarmmotorik [2]; in vivo
  Anstieg des Motilitätsindex: 82%
  Zunahme der Druckamplitude: 21%
  Zunahme der Kontraktionsdauer: 76%

## CN1CCN(CC(=O)N2c3ccccc3C(=O)Nc3cccnc32)CC1 [Pirenzepin, 5,11-Dihydro-11-[(4-methyl-piperazin-1-yl)-acetyl)-6H-pyrido [2,3-b] [1,4] benzodiazepin-6-on]
Dickdarmmotorik [2]; [3]
  Abnahme der Druckamplitude: bis zum Ausgangsniveau
  Abnahme der Kontraktionsdauer: bis zum Ausgangsniveau
  Abnahme der propulsiven Kontraktionen: nicht zu registrieren
  Abnahme des Motilitätsindex: bis zum Ausgangsniveau
Dickdarmmotorik [2]; summary statement
  Neostigmin-induzierte segmentale Kolonkontraktionen: vermindert
Darmmotilität; therapeutische Höchstdosen
  Verminderung der Darmmotilität: nicht sichtbar
Colon irritabile; all tested parameters
  Unterschiede zwischen der Placebogruppe und der Verumgruppe: signifikante bis hochsignifikante Unterschieden zugunsten von Pirenzepin
Colon irritabile; overall assessment
  Wirksamkeit in der Indikation Colon irritabile: sehr gut wirksam
